Reference: patent publication US20080299170A1, “Medical Devices and Coatings Therefor” (Aston University, priority 2005, published 2008)
Where two headings read alike, the source gives them in different places.

Experiments:
factor XIIIa [1] = target: T1, factor XIIIa (Homo sapiens, UniProt P00488); test: factor XIIIa inhibition (IC50); assay type: biochemical; details: ref [14], unpublished observations
T1 sequence (P00488 39-732 limits assumed): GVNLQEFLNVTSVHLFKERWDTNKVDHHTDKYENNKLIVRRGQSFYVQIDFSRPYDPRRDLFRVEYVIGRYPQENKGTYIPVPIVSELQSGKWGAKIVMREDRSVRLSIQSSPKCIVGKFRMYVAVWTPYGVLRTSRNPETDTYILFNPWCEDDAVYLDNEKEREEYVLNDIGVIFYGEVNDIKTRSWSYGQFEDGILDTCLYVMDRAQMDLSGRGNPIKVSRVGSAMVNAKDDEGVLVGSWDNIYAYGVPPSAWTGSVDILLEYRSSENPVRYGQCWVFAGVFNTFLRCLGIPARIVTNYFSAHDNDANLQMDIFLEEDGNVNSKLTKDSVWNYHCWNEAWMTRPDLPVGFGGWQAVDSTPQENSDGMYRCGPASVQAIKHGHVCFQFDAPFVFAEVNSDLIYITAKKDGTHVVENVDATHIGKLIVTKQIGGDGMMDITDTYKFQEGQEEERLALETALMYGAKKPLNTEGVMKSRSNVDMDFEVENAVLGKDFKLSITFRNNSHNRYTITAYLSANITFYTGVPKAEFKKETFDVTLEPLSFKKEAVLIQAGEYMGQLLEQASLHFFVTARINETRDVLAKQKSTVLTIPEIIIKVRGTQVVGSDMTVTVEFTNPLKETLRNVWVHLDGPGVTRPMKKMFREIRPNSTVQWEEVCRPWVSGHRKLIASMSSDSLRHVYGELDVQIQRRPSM

[2] = target: T2, bovine epidermal transglutaminase (Bos taurus, UniProt A6QP57); details: Castelhano et al., Bioorg. Chem. (1988) 16, 335-340; cited from earlier work
T2 sequence (A6QP57 1-691): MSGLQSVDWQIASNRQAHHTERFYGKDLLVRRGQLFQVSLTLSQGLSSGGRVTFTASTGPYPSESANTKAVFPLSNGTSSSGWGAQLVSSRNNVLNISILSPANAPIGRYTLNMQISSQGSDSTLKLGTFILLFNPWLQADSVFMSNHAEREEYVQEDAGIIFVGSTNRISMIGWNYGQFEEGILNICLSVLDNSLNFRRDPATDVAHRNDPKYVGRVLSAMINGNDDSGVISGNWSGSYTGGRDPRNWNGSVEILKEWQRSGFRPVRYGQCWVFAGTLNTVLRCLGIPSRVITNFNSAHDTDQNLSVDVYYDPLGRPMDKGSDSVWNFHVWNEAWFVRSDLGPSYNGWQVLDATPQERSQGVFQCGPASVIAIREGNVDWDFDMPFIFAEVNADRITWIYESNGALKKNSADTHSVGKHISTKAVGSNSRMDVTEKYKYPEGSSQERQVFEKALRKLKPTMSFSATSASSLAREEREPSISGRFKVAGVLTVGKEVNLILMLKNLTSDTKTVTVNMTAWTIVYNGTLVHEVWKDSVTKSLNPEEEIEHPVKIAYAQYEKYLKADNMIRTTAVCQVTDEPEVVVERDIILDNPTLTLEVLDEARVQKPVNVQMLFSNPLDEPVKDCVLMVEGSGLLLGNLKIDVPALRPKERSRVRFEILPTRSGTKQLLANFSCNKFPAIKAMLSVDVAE

human blood clots = test: in vitro assay of fibrinolysis (human blood clot lysis); details: 250 μM compound, human whole blood clot, TPA; for fibrinogen (FITC-fibrinogen) release from clots: FIG. 2; for red blood cell release from the blood clots: absorbance 750 nm, FIG. 1
Experimental: A number of TGase inhibitors show promise for exploitation in therapeutic areas where TGase has been implicated. […] Compounds 1 and 3 were evaluated for stimulation of thrombolysis (human blood clot lysis) and associated release of embedded staphylococci using an in vitro assay of fibrinolysis as shown below.
Fresh human venous blood (1 ml) was collected by venepuncture in 13 mM citrate. After addition of Staphylococcus aureus NCTC 8325 (to 10^6 cfu/ml), tissue plasminogen activator (TPA, to 100 ng/ml) and FITC-labelled fibrinogen (to 10 μg/ml) aqueous solutions of compounds 1 or 3 (to 250 μM) or water (control), the blood was clotted by addition of CaCl2 (to 20 mM) and allowed to cross-link for 1 hr at 37° C. Blood clots were washed three times each in 1 ml sterile phosphate buffered saline (PBS), resuspended in 1 ml PBS containing 10 μg/ml TPA and incubated with shaking at 37° C. Samples of the clot suspending fluid were withdrawn at intervals and measured for red blood cell content (absorbance 750 nm), fibrinolysis (fluorescence) and release of Staphylococcus aureus (by viable counting).

[3] = release of inhibitor from coated polyurethane catheter; assay type: physicochemical; details: polylactide-glycolide coating, phosphate buffered saline 37° C., over a 336 hour period, FIG. 4
Experimental: Catheter sections (2 cm, polyurethane Venflon, BD […]) were immersed in a solution of compound 3 (10 mg/ml), dissolved in polylactide-glycolide in dichloromethane (256 mg/ml) and allowed to dry in air. Individual sections were placed in 2 ml of phosphate buffered saline at 37° C. with constant shaking. Release of compound 3 was measured by assaying the phosphate buffered saline over a 336 hour period.

thrombus = details: ref [11]; cited from earlier work
factor XIIIa [4] = target: T1, factor XIIIa; details: Proof of Principle Studies, ref [10]; cited from earlier work
[5] = test system: femoral artery thrombosis; details: ref [11]; cited from earlier work
fibrin clot = test: stabilized fibrin clot formation; assay type: biochemical

release of inhibitor from a coated catheter [3]	Compound	IC50 (factor XIIIa [1])	inhibition of bovine epidermal transglutaminase [2]	fibrinogen (FITC-fibrinogen) release from clots (human blood clots)	red blood cell release from the blood clots (human blood clots)	thrombolysis in vitro (thrombus)	IC50 (factor XIIIa [4])	thrombolysis in a rabbit model of femoral artery thrombosis [5]	inhibition of stabilized fibrin clot formation (fibrin clot)
–	C[S+](C)CC(=O)CC[C@H](NC(=O)[C@@H]1CCCN1C(=O)OCc1ccccc1)C(=O)O [Compound 2, N-Benzyloxycarbonyl-L-prolinyl-6-dimethylsulfonium-5-oxo-L-norleucine]	10 µM	–	–	–	–	–	–	–
–	O=C(N[C@@H](Cc1ccccc1)C(=O)NCC1CC(Br)=NO1)OCc1ccccc1 (stereo partly drawn) [(S)-1-[(3-Bromo-4,5-dihydro-isoxazol-5-ylmethyl)-carbamoyl]-2-phenyl-ethyl}-carbamic acid benzyl ester]	–	inhibitor	–	–	–	–	–	–
prolonged release	CC(=O)CSc1n(C)cc[n+]1C [Compound 3]	–	–	greatly increased	increased	enhanced thrombolysis	50 µM	enhanced thrombolysis	–
–	C[S+](C)CC(=O)CC[C@H](NC(=O)[C@H](Cc1ccccc1)NC(=O)OCc1ccccc1)C(=O)O [Compound 1, N-benzyloxycarbonyl-L-phenylalanyl-6-dimethylsulfonium-5-oxo-L-norleucine]	50 µM	–	greatly increased	increased	–	30 µM	–	inhibit stabilized fibrin clot formation
